Measured values reported in paper PMC3025356, “Mechanism of the Ca^2+-Dependent Interaction between S100A4 and Tail Fragments of Nonmuscle Myosin Heavy Chain IIA” (Journal of Molecular Biology, 2011).

Columns and labels:
[1] = tested on: M111; test: NMR ^1H,^15N HSQC of labelled M111 on addition of full-length S100A4; assay type: binding, human; conditions: 1.5 molar excess of full-length S100A4
Experimental: Fig. 7 Chemical shift changes in the ^1H,^15N HSQC spectra of ^13C,^15N-labelled M111 on addition of full-length S100A4. Superposition of the spectra in free form (black) and in the presence of a 1.5 molar excess of S100A4 (red). Resonance assignments derived from the analysis of triple-resonance spectra are marked. In addition to sharp intense cross-peaks, the spectra contain broad low-intensity peaks that cannot be assigned due to low sensitivity.
All NMR samples were prepared in 20 mM 4-morpholineethanesulfonic acid, 20 mM NaCl, 5 mM CaCl2, and 5% D2O buffer (pH 6.1). DTT (2 mM) was added to the samples containing S100A4. Titration experiments were carried out at 0.2 mM S100A4 using 10 mM peptide solutions. Spectra for M111 backbone resonance assignments were measured using 0.4 mM protein solution. NMR spectra were obtained at 298 K using Bruker AVANCE DRX 600 or AVANCE DRX 800 spectrometers, which are both equipped with cryoprobes. Proton chemical shifts were referenced to external 2,2-dimethyl-2-silapentane-5-sulfonate. The ^15N and ^13C chemical shifts were referenced indirectly using recommended gyromagnetic ratios.[44] Spectra were processed with TopSpin (Bruker) and analysed using Analysis.[45] Three-dimensional HNCO, HN(CA)CO, HNCA, HN(CO)CA, HNCACB, and HN(CO)CACB experiments were used for the sequential assignment of the backbone NH, N, CO, C^α, and C^β resonances.

[2] = target: NM-MHC IIA rods; conditions: 20 mM NaCl; cited from earlier work
From the text: Over the last two decades, there has been much interest in the role of the S100 Ca^2^+-binding protein family in the regulation of cellular events.[1,2] Identifying the specific targets of each of the 24 members[3] and deducing their mechanisms of action in vitro and in vivo remain to be a challenge. This is exemplified by S100A4 (also known as Mts1, metastasin, p9Ka, pEL98, calvasculin, and Fsp-1), which has been implicated in a wide range of cellular events and numerous diseases and binds to several different targets in vitro.[4–6] In particular, following early work,[7–9] there have been ma ...

[3] = cited from earlier work
From the text: Apart from the different methods used to study Ca^2+ binding, which have sensitivities over different concentration ranges, part of the variability in Kd values in the literature may arise from the self-association of S100A4. There is a general consensus[12,13,17,21,22] that S100A4 exists predominantly as a dimer at micromolar concentrations (indeed, this can lead to difficulties in interpreting literature values for stoichiometries quoted as ‘moles of Ca^2+ bound per mole of S100A4’ if the latter is not stated explicitly as being per monomer or per dimer). In the absence of Ca^2+, monomeric S ... || In the absence of added Ca^2+ (i.e., where the free “contaminant” [Ca^2+] in buffers would be of the order of 1 μM), mixing S100A4 with excess Quin-2 produced a small-amplitude signal (corresponding to 0.1 mol of Ca^2+ per mole of S100A4 monomer) with a rate constant of around 1 s^− 1.

[4] = tested on: M200 filamentous bundles; test: Electron microscopy of myosin IIA tail fragments; parameters: species or system human; conditions: two times stoichiometric S100A4, Ca^2+, 0.1 M Na-acetate
Experimental: Fig. 8 Characterisation of myosin IIA coiled-coil tail fragments. Metal-shadowed electron micrographs of (a) M200 and (b) M111 deposited from 0.5 M ammonium acetate. Scale bar represents 50 nm. (c and d) Electron micrographs of a negatively stained M200 tail fragment. Fields of M200 (c) in the absence and (d) in the presence of a 2-fold molar excess of S100A4, respectively. Arrows point to individual strands emerging from images of filamentous bundles. The samples were prepared in 0.1 M sodium acetate buffer, where M200 formed large filamentous aggregates but were solubilised in the presence of S100A4. Scale bar represents 200 nm (see Materials and Methods for details).
For negative staining, the stock solution of the M200 tail fragment was diluted with a solution consisting of 0.1 M Na-acetate, 3 mM MgCl2, 0.1 mM CaCl2, 10 mM imidazole, and 5 mM NaH2PO4 (pH 7.0), with or without 14 μM S100A4, to give a final concentration of 7 μM M200. Following dilution, 5 μl of the mixture was applied to a grid with a thin carbon film supported by a holey carbon film, and the grid was negatively stained using 1% uranyl acetate. […] Images were recorded on a 2000 × 2000 F224HD slow-scan CCD camera (TVIPS, Gauting, Germany) at a magnification of 65,000× (0.37 nm pixel^− 1). The lengths of nonoverlapping well-shadowed molecules were measured as described by Burgess et al.[47]

Substance: S100A4: recombinant S100A4 expressed in E. coli BL21(DE3)
- resonance broadening in M111 on S100A4 addition [1]: additional broadening of resonances in the 1926–1939 region
- binding to rods [2]: micromolar affinity
- protein concentration at which monomer is detected ([3]; absence of Ca^2+): below 2 μM
- concentration at which tetrameric and higher aggregates become significant ([3]; presence of Ca^2+): exceeding 20 μM
- Ca^2+ affinity of tetramer relative to dimer ([3]; suggested by ultracentrifuge data): about 20 -fold
- M200 filamentous bundles after S100A4 addition [4]: no trace of filamentous bundles was observed
